Measured values as given in patent publication US20070060605A1, “Compositions and methods for inhibiting platelet activation and thrombosis” (priority 2001, published 2007).
Like-named read-outs stand apart in the source and are kept apart here.

Legend:
[1] = system: platelets; assay: Agonist-induced platelet granule secretion / activation (P-selectin expression by flow cytometry; ADP/ATP release); assay type: cell-based, human; details: for IC50: Homo sapiens, Platelet
Method: In order to monitor ATP release, a cocktail of 100 μM SFLLR (synthesized using solid phase Fmoc chemistry on an Applied Biosystems model 430A peptide synthesizer) and 3 mg/ml of luciferin/luciferase (Sigma, St. Louis, Mo.) in a volume of 10 μl is added to 20 μl of PRP. Samples are immediately analyzed for luminescence. Activated platelets supply the ATP necessary for luminescence of the luciferin/luciferase assay. Assays can be performed at high throughput through use of a microtiter plate system, e.g., 384-well plates and a Multidrop 384 (Thermo Labsystems, Helsinki), read with a high density imaging system, e.g., the Tundra system (Imaging Research, St. Catherine's, Ontario).
(§1) In order to assay platelet activation by cell surface marker expression, fresh PRP is isolated from donors who have not ingested aspirin for two weeks prior to donation. PRP (40 μl) is incubated with known or suspected inhibitor in DMSO or DMSO alone for 15 min. The sample is then incubated with the indicated agonist (e.g., SFLLR) for 10 min. Following incubation of the sample with the indicated agonist, 10 μl of reaction mixture is transferred to 5 μl of phycoerythrin (PE)-conjugated AC 1.2 anti-P-selectin antibody (for assessment of P-selectin surface expression) or fluorescein isothiocyanate (FITC)-conjugated PAC-1 antibody (for assessment of GPIIbIIIa activation). PBS (500 μl) is added to the sample after a 20 min incubation and the platelets are analyzed immediately by flow cytometry. Flow cytometry can be performed using, for example, a Becton-Dickinson FACSCalibur flow cytometer or its equivalent. Fluorescent channels are set at logarithmic gain. Ten thousand particles are acquired for each sample. A 530/30 band pass filter is used for FL-1 fluorescence. A 585/42 band pass filter is used for FL-2 fluorescence. FITC is measured in the FL-1 channel and PE is measured in the FL-2 channel. Data are analyzed using, for example, CellQuest software on a Macintosh PowerPC, or their equivalents.
Compounds were tested for the ability to inhibit agonist-induced ADP/ATP release from platelet dense granules using a luciferin-luciferase reporter system. In this assay, compounds were incubated with platelet-rich plasma (PRP) for 30 min. A cocktail of the platelet agonist and luciferin-luciferase was then added to the wells. Plates were immediately analyzed using a Tundra high density luminescence imager. […] As a control, compounds were also screened in a platelet-free assay for the ability to inhibit luciferin-luciferase upon exposure to ATP.
Each of the compounds was tested for inhibition of platelet activation in response to the agonists SFLLR (a thrombin mimic), U46619 (a thromboxane A2 mimic), ADP and the phorbol ester PMA.
(§2) Compounds were also tested by flow cytometry for the inhibition of SFLLR-induced GPIIbIIIa activation and P-selectin expression. In these experiments, freshly obtained PRP was prepared from healthy volunteers who had not ingested aspirin for two weeks prior to donation. Forty μl of PRP was incubated with inhibitor in DMSO or DMSO alone for 15 min. The sample was then incubated with the indicated agonist for 10 min. Following incubation of the sample with the indicated agonist, 10 μl of reaction mixture was transferred to 5 μl of PE-conjugated AC1.2 anti-P-selectin antibody (for assessment of P-selectin surface expression) or FITC-conjugated PAC-1 antibody (for assessment of GPIIbIIIa activation). PBS (500 μl) was added to the sample after a 20 min incubation and the platelets were analyzed immediately by flow cytometry. Flow cytometry was performed using a Becton-Dickinson FACSCalibur flow cytometer. Fluorescent channels were set at logarithmic gain. Ten thousand particles were acquired for each sample. A 530/30 band pass filter was used for FL-1 fluorescence. A 585/42 band pass filter was used for FL-2 fluorescence. FITC was measured in the FL-1 channel and PE was measured in the FL-2 channel.

[2] = system: platelet GPIIbIIIa; assay: SFLLR-induced GPIIbIIIa activation (PAC-1 antibody, flow cytometry); assay type: cell-based, human; details: PAC-1 antibodies
Method: as §1
as §2, with “channel. Data were analyzed using CellQuest software on a MacIntosh PowerPC.” for “channel.”

[3] = system: platelets; assay: F-actin assembly (FITC-phalloidin, flow cytometry); assay type: cell-based, human; details: agonist SFLLR
Description: To determine whether or not the effects of the pyridazinone compound were limited to inhibition of alpha-granule secretion, the ability of the compound to inhibit F-actin assembly and αIIbβ3 activation was examined. F-actin assembly was detected using FITC-phalloidin and quantified by flow cytometry (Winokur et al., 1995, Blood 85, 1796-804; Oda et al., 1992, Blood 79, 920-7).

[4] = system: platelet protein palmitoylation; assay: Incorporation of [3H]-palmitate into platelet proteins; assay type: cell-based; details: 100 μM compound; 20 μM or 200 μM SFLLRN
Method: Platelets were labeled with [^3H]-palmitate for 2 hours in the absence (lanes 1, 2, and 3) or presence (lanes 4, 5, and 6) of 100 μM JF081204{5C} for 2 hours. Labeled platelets were then incubated with 0 μM ([…]), 20 μM (lanes 2 and 5), or 200 μM SFLLRN (lanes 3 and 6). Platelet samples were lysed, separated by SDS-PAGE, Western blotted, and visualized with a tritium imager screen (Panel a). The activation of platelets by SFLLRN led to an increase incorporation of [^3H]-palmitate into platelet proteins, whereas the presence of JF081204{5C} inhibited this activation-dependent [^3H]-palmitate incorporation (Panel b). Western blot membrane from panel (a) was stained with Ponceau S to visualize proteins in the platelet lysates.
The incorporation of [^3H]-palmitate into platelet intracellular proteins was examined to determine the effect of JF081204{5C} on platelet protein palmitoylation. […] Exposure of platelets to either 20 μM or 200 μM SFLLRN increased the intensity of the labeling. Incubation of platelets with 100 μM of JF081204{5C} inhibited the increase in [^3H]-palmitate incorporation induced by either 20 μM or 200 μM SFLLRN.

SMILES | ADP- and collagen-induced granule release less potent than SFLLR and U46619 [1] | ADP-induced responses inhibited less effectively than SFLLR and U46619 responses ([1]; ADP vs SFLLR and U46619) | IC50 ([1]; agonist ADP, read-out: IC50s of inhibition of platelet granule secretion induced with ADP) [µM] | IC50 ([1]; agonists SFLLR and U-46619, read-out: IC50 SFLLR- and U-46619-induced activation) [µM] | IC50 ([1]; agonist Collagen, read-out: IC50 collagen-induced platelet granule release) [µM] | Inhibition of PMA-induced platelet activation ([1]; agonist PMA) | Inhibition of PMA-induced activation ([1]; agonist PMA, up to 1000 μM) | SFLLR-induced αIIbβ3 activation [2] | SFLLR-induced F-actin assembly / cytoskeleton rearrangement [3] | U46619-, A23187-, and PMA-induced P-selectin expression less potent than SFLLR [1] | IC50 ([1]; agonist A23187, read-out: IC50 P-Selectin Expression Induced by A23187) [µM] | IC50 ([1]; agonist PMA, read-out: IC50 P-Selectin Expression Induced by PMA) [µM] | IC50 ([1]; agonist SFLLRN, maximally stimulatory dose, read-out: IC50 P-Selectin Expression Induced by SFLLRN) [µM] | IC50 ([1]; agonist SFLLRN/SFLLR, human platelets, read-out: IC50 SFLLRN-induced P-selectin expression, flow cytometry) [µM] | IC50 ([1]; agonist U46619, read-out: IC50 P-Selectin Expression Induced by U46619) [µM] | Potency in inhibiting SFLLRLN- and epinephrine-induced activation relative to other agonists ([1]; footnote, sentence cut off) | Increase in [3H]-palmitate incorporation induced by SFLLRN [4]
CC1CC(=O)NN=C1c1ccc(N)c([N+](=O)[O-])c1 (centres unmarked) [6-(4-Amino-3-nitro-phenyl)-5-methyl-4,5-dihydro-2H-pyridazin-3-one] | at least 25 fold | approximately 20 fold | 8 | 0.3 | 70 | did not inhibit | No inhibition | inhibited | interferes |  |  |  |  |  |  |  | 
CCCCCn1c2c(c(=N)c3ccccc31)CCC2 [JF081204{5C}] |  |  |  |  |  |  |  |  |  | at least 150 fold | > 300 | 300 | 2 | 2 to 150 | 400 | #inhibit platelet activation induced by the indicated agonist is shown. The potency of this compound in inhibiting SFLLRLN- and epinephrine-induced activation was at least 100-fold greater than that o | inhibited
